Experimental data taken from patent US10994013B2, “Solid dosage form containing arabinogalactan” (TEMPLE UNIVERSITY—OF THE COMMONWEALTH SYSTEM OF HIGHER …, priority 2013, dated 2021).
Values after ≈ are worked out from the molar mass of the structure shown. Read-outs that look alike come from different tables or passages of the source. One block for each molecule: values may come before it.

How the values were obtained:
[1] = cited from earlier work
[2] = In vitro drug dissolution, USP basket method, 0.1 N HCl; assay type: physicochemical; details: for % drug release at 15 minutes / % drug release at 30 minutes / % drug release at 120 minutes: 0.1N HCl, AGF formulations
Method: (§1) The in vitro drug dissolution rates of the dosage forms listed in Table 4 below were determined by the USP basked method (270 mesh, 53 micron pore size). The Van Kel VK7010 dissolution system was employed. 900 ml of 0.1 N HCl at 37° C. was used as a dissolution medium. The media was selected to mimic gastric pH and to allow greater discrimination of ibuprofen dissolution profiles due to formulation and processing effects. The dissolution experiment was run at 100 rpm. Each sample contained a dosage form equivalent to 25 mg of ibuprofen to maintain the non sink conditions, i.e. to employ a volume of medium (900 ml in this case) that is less than the volume of medium required for sink conditions, which is three times that required in order to form a saturated solution of drug. In vitro dissolution of 25 mg of neat ibuprofen was used as a control. At appropriate time intervals, samples were collected and replaced by fresh media. Each sample was filtered and the drug was analyzed using Agilent/HP 8453 UV-Vis spectrophotometer (λmx=222 nm). The experiment was conducted in triplicate. T50 (time for 50% drug release), T60 (time for 60% drug release), and T80 (time for 80% drug release) was recorded directly from the dissolution profiles.
as §1, with “PMs and MSDs made with ibuprofen and AGF or HPMCK3” for “the dosage forms listed in Table 4 below”, “contained an MSD or” for “contained”, “PM” for “dosage form”
In vitro basket dissolution was carried out on SDM and PM formulations as described in Example 3. Each sample of ITRA AGF SDM contained an amount equivalent to 25 mg of ITRA to maintain the non sink conditions. ITRA was analyzed using an Agilent/HP 8453 UV-Vis spectrophotometer (λmax=257 nm).
UV analysis was conducted at λmax=260 nm.
The degree of similarity between the dissolution profiles was calculated using the following equation from Moore and Flanner, 1996, Pharm. Tech. 20:64-74, and using data points up to 85% drug release (Shah et al., 1998, Pharm. Res. 15:889-896):
Two dissolution profiles would be deemed similar if the average difference between the reference and the test assay at the same time point were less than 10%. The similarity factor value would then not be less than 50%.

[3] = Relative degree of crystallinity (RDC) by XRPD; assay type: physicochemical; details: at 10% DL SD with AGF
Method: The term “relative degree of crystallinity (RDC),” as used herein is the degree of crystallinity of the therapeutic agent in the dosage form relative to the degree of crystallinity of the neat therapeutic agent. RDC is calculated using the following formula: RDC=I sample/I therapeutic agent I sample: peak height of the formulation under investigation at a chosen angle (2θ) I therapeutic agent: peak height of the neat therapeutic agent at the same angle that was chosen for the sample (2θ)
Powder X-ray diffraction of the ibuprofen-arabinogalactan MSDs was carried out to determine the crystallinity of the ibuprofen. Powder samples ([…]) were placed on a sample holder and the diffractograms were collected using a Bruker D8 diffractometer (Madison, Wis.) with Cu Kα radiation. The voltage of 40 kV was used and the current was 40 mA. The samples were scanned from 2 θ to 40 θ at a rate of 2 θ/minute. The data analysis was done using Bruker-AXs EVA software (version 15.0).
XRPD were collected using Rigaku D-Max B X-ray Diffractometer (Tokyo, Japan). The powder sample size of 0.5 gram was used and samples were run at 35 kV at 15 mA and […]. JADE software (version 9) was used to process, acquire and analyze the data.

[4] = Equilibrium solubility of drug in polymer solution in 0.1N HCl; assay type: physicochemical; details: for solubility thermodynamic at 72 h: 0.1 N HCl without polymer, simulated gastric fluid, thermodynamic from solid, 0.1 N HCl, 37 C, no polymer, read-out: saturation / equilibrium solubility of neat drug; for fold increase in drug solubility in the presence of AGF polymer: AGF dissolved in 0.1N HCl, 0% to 3%, ITRA and KETO at 3%
Method: Anal. Chem. Instrum. […] An excess of IBU (200 mg) was added to 10 ml of polymer solution in 0.1N HCl in a stoppered glass vial and was bath sonicated for 30 minutes. The polymer concentrations ranged from 0% to 3% (0 mg/ml to 30 mg/ml). The vials were kept in a shaking water bath at 37 C and at 50 rpm for 72 hours to obtain equilibrium. After 72 hours the shaker was turned off and the samples were kept at a standstill at 37 C for 3 hours to settle the undissolved drug at the bottom of the glass vials. The supernatant was filtered using a 0.45 micron filter.
For an equilibrium study of itraconazole, 50 mg itraconazole (ITRA) was added to 20 ml of AGF polymer solution in 0.1 N HCl.

[5] = Physical stability: XRPD RDC at accelerated storage conditions; assay type: physicochemical; details: IBU as reference, 2θ of 22.4°
Method: The RDC was measured by XRPD as described above for the dosage forms listed in Table 22 at various accelerated storage conditions. Batches of IBU AGF SDM, IBU HPMCK3 SDM, IBU HPMCK3 MSD and IBU AGF MSD at 10% drug load and 20% drug load were prepared as described above. In addition, 10% IBU AGF MSD and 10% IBU AGF SDM batches were prepared with 0.02% butylated hydroxytoluene (BHT), an antioxidant. […] 60% relative humidity and 40° C. […] These findings were confirmed by DSC (not shown).

Compound: Clc1ccc(C(Cn2ccnc2)OCc2ccsc2Cl)c(Cl)c1 (stereo not shown) [TIOCO, tioconazole]
Solubility [1]: ~2 µg/mL (≈ 5.16 µM)

Compound: COCCOC(=O)C1=C(C)NC(C)=C(C(=O)OC(C)C)C1c1cccc([N+](=O)[O-])c1 (stereo not shown) [NIMO, nimodipine]
Solubility [1]: 2299 µg/mL (≈ 5490 µM)

Compound: CCCNC(=O)NS(=O)(=O)c1ccc(Cl)cc1 [CHLOPR, chlorpropamide]
Solubility ([1]; water at pH 6): 2500 µg/mL (≈ 9030 µM)

Compound: CC(=O)N1CCN(c2ccc(OC[C@H]3CO[C@](Cn4ccnc4)(c4ccc(Cl)cc4Cl)O3)cc2)CC1 (racemic) [KETOC, ketoconazole]
Solubility [1]: 10 µg/mL (≈ 18.8 µM)

% drug release at 15 minutes [2]: 1.8%
% drug release at 30 minutes [2]: 3.3%
% drug release at 120 minutes [2]: 8.4%
Compound: CC(C(=O)O)c1cccc(C(=O)c2ccccc2)c1 (stereo not shown) [KETO, Ketoprofen]

Compound: C[C@@H](C(=O)O)c1ccc(-c2ccccc2)c(F)c1 [FLURBI, flurbiprofen]
Solubility [1]: 482 µg/mL (≈ 1970 µM)

Compound: CC(C)NCC(O)COc1cccc2ccccc12 (stereo not shown) [PROPFB, propranolol free base]
Solubility [1]: 120 µg/mL (≈ 463 µM)

RDC value [3]: 0.125
Compound: CC(C(=O)O)c1cccc(Oc2ccccc2)c1 (stereo not shown) [Fenoprofen, fenoprofen]
Solubility ([1]; for its calcium salt): <<<<<<2500 μg/ml

solubility thermodynamic at 72 h [4]: 5720 µg/mL (≈ 8110 µM)
fold increase in drug solubility in the presence of AGF polymer [4]: 16 fold
Compound: CCC(C)n1ncn(-c2ccc(N3CCN(c4ccc(OCC5COC(Cn6cncn6)(c6ccc(Cl)cc6Cl)O5)cc4)CC3)cc2)c1=O (stereo not shown) [ITRA, Itraconazole]

solubility thermodynamic at 72 h [4]: 37 µg/mL (≈ 179 µM)
fold increase in drug solubility in the presence of AGF polymer [4]: 7.3 fold
IBU solubility with increasing HPMCK3 concentration ([4]; control polymer HPMCK3 in 0.1N HCl): did not enhance the solubility
% drug release at 15 minutes [2]: 8%
% drug release at 30 minutes [2]: 27%
% drug release at 120 minutes [2]: 41%
T60 (time for 60% drug release) ([2]; 900 ml 0.1 N HCl, 37° C., 100 rpm, 25 mg ibuprofen, non sink): 300 min
XRPD RDC, 25° C. and 0% relative humidity (6 Months) [5]: 1
XRPD RDC, 25° C. and 60% relative humidity (6 Months) [5]: 1
XRPD RDC, 40° C. and 0% relative humidity (3 Months) [5]: 1
XRPD RDC, 40° C. and 75% relative humidity (3 Months) [5]: 1
XRPD RDC, INITIAL [5]: 1
Compound: CC(C)Cc1ccc(C(C)C(=O)O)cc1 (stereo not shown) [IBU, Ibuprofen]
